Source: patent US20240041813A1, “VERY-LONG-CHAIN POLYUNSATURATED FATTY ACIDS, ELOVANOID HYDROXYLATED DERIVATIVES, AND METHODS OF USE” (priority 2020, published 2024)

How the values were obtained:
[1] = test system: ACE-2 receptor; experiment: ACE-2 protein abundance by Jess capillary western in human alveoli in culture; format: cell-based; settings: effect dependent on addition of IL-1b
Source text: The Simple Protein platform Jess allows running a protein mixture in a capillary system that also serves as a probing matrix for the antibodies. This platform obviates the need to transfer the size-separated proteins onto a membrane with the consequent loss of sample. The sample amount that can be run in Jess is several times smaller than that required for Western blots. Therefore, high throughput is facilitated in cell cultures. The antibodies to this protein have been validated in our laboratory.
c.1.b. Protein abundance using Jess technology. The Simple Protein platform Jess allows running a protein mixture in a capillary electrophoretic system as a probing matrix for the antibodies (we refer to western blot as “Jess WB” here). This platform obviates the need to transfer the size-separated proteins onto a membrane with a potential loss of sample. The sample size run in Jess is several times smaller than that for classical WB. (400 ng protein/capillary column vs. 10 or more μg for classical WB). The proteins we assess will include ACE2, Furin, ADAM17, DPP4, TMPRSS2, protein surfactant D, and Cathepsin L. In addition, senescence and SASP proteins will also be analyzed. […]
ACE2 Protein abundance using Jess technology. […] Soluble protein concentration was determined by BCA assay (Thermo Fisher Scientific, Cat. 23225) and 0.4 μg used/reaction. […]

[2] = test system: ACE2; experiment: Rat cornea alkali burn: corneal RNA-seq, Ace2 gene expression; format: in vivo; settings: rat cornea after alkali burn; eye drops 3 times/day for 14 days; RNA-seq day 14
Protocol: The rats were anesthetized by intraperitoneal injection of Ketamine (50-100 mg/kg) plus xylazine (5-10 mg/kg). A 4 mm diameter filter paper soaked in 1 N NaOH was placed on the central cornea of the right eye for 45 seconds, and then the eye was thoroughly washed with […] of saline. After injury, the rats were randomly divided into five treatment groups: vehicle; lipoxin A4 (LXA4) from Cayman Chemical (Ann Arbor, MI, USA); R,R Resolvin D6 isomer (RvD6i), R,R neuroprotection D (NPD1), and elovanoid (ELV)-N32. All lipid solutions were prepared at the final concentration of […] using PBS with the minimal contamination of ethanol by evaporating the ethanol and immediately dissolve the lipids in PBS, then vortex well for 2 min. Topical administration (20 μl) was done 3×/day for 14 days. The experiments were double-blinded with the lipid mediators coded during the whole experiments. At the end of the study, when all data was collected, the code was opened.
Injured corneas (n=5/condition) were harvested and homogenized with TRIzol (Thermo Fisher Scientific) on ice with a glass Dounce homogenizer. RNA sequencing was performed as described^14. Briefly, after mRNA extraction and determination of purity, 8 ng of total RNA was reverse transcribed, and total cDNAs were amplified using ISPCR primer, and the library was made with the Nextera XT DNA library preparation kit (Illumina, San Diego, CA, USA). The libraries were pooled with the same molarity and sequenced using the NextSeq 500/550 High Output Kit v2 (75 cycles, Illumina). After demultiplexing, RNA-seq data were aligned to the Rattus Norvegicus reference genome (.ensembl.org/pub/release-98/fasta/rattus_norvegicus/dna/) using the Subread package v2.0.1 alignment function39. The BAM files for sequencing data alignment were counted using featureCounts function of Subread tool^40 using the macOS Catalina. The raw count data were subjected to differential gene expression analysis using DESeq2 package for R^41 with the vehicle group as reference. The adjusted p-values were named as the false discover rate (FDR).

[3] = test system: Cdkn2a (p16INK4a); experiment: HCEC challenged with IFNγ: Cdkn2a gene expression; format: cell-based, human; settings: IFNγ 100 ng/ml
Source text: All experiments with human corneal epithelial cells were approved by the Institutional Review Board of LSUHNO and conducted in accordance with NIH guidelines. HCEC were kept frozen in the laboratory at passage 2544. Cells were maintained in keratinocyte growth (KGM) medium containing the keratinocyte basal medium (KBM) (Lonza: CC-3101) supplemented with bovine pituitary extract (BPE), hEGF, Insulin, Hydrocortisone and Gentamicin Sulfate-Amphotericin (GA-1000) (Lonza, Cat. CC-4131). For all experiments, cells were seeded at 30,000 cells/cm2.
For screening the stimulation of receptor ACE2 by cytokines, the HCEC were cultured with KGM until 50-60% confluence. Then, changed to KBM containing IL-1β, -2, -6 and 8, IFN-α, -ε, and -γ or TNFα at 1, 10 or 100 ng/ml. The cells were harvested after 6 hours and analyze for the gene expression of Ace2. In other experiments, HCEC were stimulated with IFNγ, and thereafter, lipid mediators were added. For the Alexa 594-conjugated RBD binding, IFNγ was used as a cytokine trigger. At 12 hours after cytokine exposure and lipid mediator treatments, […] of labeled RBD was added to the medium. The evaluation of RBD binding was conducted 24 hours after.
Quantitative PCR was performed with the Biomark HD system (Fluidigm, San Francisco, CA, USA). Briefly, 200 ng of RNA was reverse-transcribed using iScript Reverse Transcription Supermix (Bio-Rad), and the cDNA was pre-amplified using the PreAmp Master Mix (PN 100-5580; Fluidigm). The cDNA was then subjected to Exonuclease I treatment and diluted 5 times in TE Buffer. The qPCR reaction mixture and primer reaction mixture were made and loaded into the Biomark 96.96 IFC™ (Integrated Fluidic Circuit). The enzyme reaction was mixed using Juno™ Controller (Fluidigm) and run using the cycling program of (i) 70° C. for 40 minutes followed by 60° C. for 30 seconds, (ii) hot start for 1 minute at 95° C., (iii) 30 cycles of denaturation at 96° C. for 5 seconds, and annealing at 60° C. for 20 seconds, and (iv) melting curves between 60° C. and 95° C. with 1° C. increments/3 seconds. The Ct value of target genes was normalized to the house-keeping genes Gapdh, Hprt1, and Tfrc before normalized to the vehicle group. Relative fold changes from the ΔΔCT calculation was used to make the graph.

## CC/C=C\CC(O)\C=C/C=C/C=C/C(O)C/C=C\C/C=C\CCCCCCCCCCCCC(=O)O [ELV-N32, (14Z,17Z,20R,21E,23E,25Z,27S,29Z)-20,27-dihydroxydo-triaconta-14,17,21,23,25,29-hexaenoic acid]
[1]
  expression of the ACE-2 receptor (protein abundance, Jess): downregulate
[2]
  Ace2 gene expression levels: decrease
[3]
  Cdkn2a activation: decrease
